Earlier results as cited in patent US20250241904A1, “COMPOSITION AND METHOD FOR PREVENTION AND TREATMENT OF CUTANEOUS RADIATION INJURY” (Rythera Therapeutics, Inc., priority 2022, published 2025).
One block for each molecule: values may come before it.

Assays:
[1] = test system: radiation proctopathy or proctitis; details: in vivo
mice = details: topical

Molecule: Sucralfate
treating radiation proctopathy or proctitis [1]: ineffective

Molecule: O=[N+]([O-])OCC(CO[N+](=O)[O-])O[N+](=O)[O-] [nitroglycerin]
treating radiation proctopathy or proctitis [1]: ineffective

Molecule: NCCCNCCSP(=O)(O)O [amifostine]
dermato-cytoprotective effects (radiation dermatitis; retrospective analysis): significant dermato-cytoprotective effects

itch-evoked scratching (mice): significant itch-evoked scratching
Molecule: CN[C@H]1CC[C@@H](c2ccc(Cl)c(Cl)c2)c2ccccc21 [sertraline]

Molecule: O=C1O[C@H]([C@@H](O)CO)C(O)=C1O [Vitamin C]
results of irradiated breast tissue (radiation dermatitis; in vivo): without improvement

Molecule: Nc1ccc(O)c(C(=O)O)c1 [5-ASA, 5-aminosalicylic acid]
treating radiation proctopathy or proctitis [1]: unsuccessful
